# Experimental data: PubChem BioAssay AID720604 (Broad Institute, 2013)
# Records with an inconclusive call do not appear.
# Test system: HUVEC viability, CellTiter-Glo ATP luminescence, 8-48 h
# Test: HUVEC endothelial cell viability loss, dose response, cytotoxicity control for HRAS target identification, CellTiter-Glo ATP luminescence, 8/24/48 h, dry powder (AID 720604)
SMILES,AC50 (measured here: 8 h treatment) [µM],AC50 (measured here: 24 h treatment) [µM],AC50 (measured here: 48 h treatment) [µM]
COc1ccc(N(C(=O)CCl)C(C(=O)NCCc2ccccc2)c2cccs2)cc1Cl (stereo not given),25.4,5.53,5.1
CC(C)(C)OC(=O)NCCOCCOCCOc1ccc(N(C(=O)CCl)C(C(=O)NCCc2ccccc2)c2cccs2)cc1Cl (stereo not given),–,7.15,7.2
